Patent publication US20100190778A1, “3,4-DIHYDROBENZO[1,2,3]THIADIAZINE-1,1-DIOXIDE DERIVATIVES, PROCESS FOR PREPARATION THEREOF, MEDICAMENTS CONTAINING SAID DERIVATIVES AND THEIR USE” (EGIS GYOGYSZERGYAR NYILVANOSAN MUKODO RESZVENTARSASAG, priority 2006, published 2010)

How the values were obtained:
male Sprague-Dawley rats = test: elevated maze test in the rat (anxiolytic effect); format: in vivo; details: per os, 60-min pretreatment, 5-min measurement, MED regarding time spent in the open arms and number of entries into the open arms
Method: Pharmacological activity of the compounds of the general Formula (I) has been evaluated in elevated maze test in the rat.
The tests were carried out according to the method of S. Fellow and coworkers (J. Neurosci. Methods. 1985, 14, 149-167). During the test, a wooden-floor cross elevated by 50 cm from the ground was used. The length and the width of the arms of the cross were 100 and 15 cm, respectively. Two opposite arms of the cross are fitted at the ends and both sides with black plexiglass wall of 40 cm height (closed arms). The central section of the cross measuring 15 by 15 cm is open. The other two opposite arms of the cross are not provided with walls (open arms).
The tests were carried out in male Sprague-Dawley rats weighing 200 to 220 g. After the 60-min pretreatment time (per os treatment), animals were placed in the center of the maze. During the 5-min measurement time, four variables were recorded: the time spent in the open arms; the time spent in the closed arms; the number of entries into the open arms; the number of entries into the closed arms.
Animals normally avoid the open and light parts of the maze, thereby spending little time therein only. The anxiolytic effect of the compounds of the general Formula (I) is indicated by the increase in the time spent (in seconds) in the open arms and/or by the increase in the number of the entries into the open compartments of the maze. The minimum effective dose (MED) was determined for each tested compounds regarding the time spent in the open arms and the number of entries into the open arms. During the test, the known anxiolytic compound I-methyl-5-phenyl-7-chloro-1,3-dihydro-2H-1,4-benzodiazepin-2-one (INN: diazepam) of the Formula (IV)
was used. Treatment of the animals was carried out orally with the doses 0.1, 0.3, 1.0, 3.0 for diazepam and 0.01, 0.1, 1.0 mg/kg for the compounds of the general Formula (I).

CN1NCc2ccc(Cl)c(Cl)c2S1(=O)=O [Example 20, 7,8-Dichloro-2-methyl-3,4-dihydrobenzo[1,2,3]thiadiazine-1,1-dioxide]
MED (minimum effective dose), anxiolytic effect in elevated maze test (male Sprague-Dawley rats): 0.01 mg/kg p.o.
melting point: 124 to 125 °C
